Patent US20110263564A1, “PYRIDINE, BICYCLIC PYRIDINE AND RELATED ANALOGS AS SIRTUIN MODULATORS” (Sirtris Pharmaceuticals, Inc., priority 2008, published 2011)

Target: T1, SIRT1 (Homo sapiens, UniProt Q96EB6)
T1 sequence (Q96EB6 1-747): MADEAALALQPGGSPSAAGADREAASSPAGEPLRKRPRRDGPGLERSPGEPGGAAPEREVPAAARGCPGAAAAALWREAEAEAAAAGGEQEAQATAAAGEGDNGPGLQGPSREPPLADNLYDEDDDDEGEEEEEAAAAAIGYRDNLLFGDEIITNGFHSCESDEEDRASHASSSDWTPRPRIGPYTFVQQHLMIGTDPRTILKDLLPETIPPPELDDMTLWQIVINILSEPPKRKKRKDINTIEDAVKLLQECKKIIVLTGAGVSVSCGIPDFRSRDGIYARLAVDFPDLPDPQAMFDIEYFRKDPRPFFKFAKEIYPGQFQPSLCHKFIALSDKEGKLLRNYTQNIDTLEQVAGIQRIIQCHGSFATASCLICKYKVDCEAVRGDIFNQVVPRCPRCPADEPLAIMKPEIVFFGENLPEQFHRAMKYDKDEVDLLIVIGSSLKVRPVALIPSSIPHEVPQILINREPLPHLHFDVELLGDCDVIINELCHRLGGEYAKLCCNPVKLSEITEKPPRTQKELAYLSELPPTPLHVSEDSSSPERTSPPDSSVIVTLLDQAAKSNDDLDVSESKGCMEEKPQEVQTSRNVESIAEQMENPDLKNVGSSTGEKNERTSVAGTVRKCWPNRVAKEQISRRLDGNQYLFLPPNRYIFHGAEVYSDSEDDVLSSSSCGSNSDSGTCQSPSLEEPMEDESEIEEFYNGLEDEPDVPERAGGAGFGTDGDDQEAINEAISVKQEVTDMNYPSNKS
Assay: Mass spectrometry based assay of SIRT1 activity (deacetylation of a p53-based acetylated peptide)
Type: biochemical
Conditions: 10 nM SIRT1, 0.5 μM peptide substrate, 120 μM βNAD+, 25 minutes at 25° C.; for Emax: read-out: % FOLD ACT. (percent maximum fold activation)
Source text: A mass spectrometry based assay was used to identify modulators of SIRT1 activity. The mass spectrometry based assay utilizes a peptide having 20 amino acid residues as follows: Ac-EE-K(biotin)-GQSTSSHSK(Ac)NleSTEG-K(5TMR)-EE-NH2 (SEQ ID NO: 1) wherein K(Ac) is an acetylated lysine residue and Nle is a norleucine. The peptide is labeled with the fluorophore 5TMR (excitation 540 nm/emission 580 nm) at the C-terminus. The sequence of the peptide substrate is based on p53 with several modifications. In addition, the methionine residue naturally present in the sequence was replaced with the norleucine because the methionine may be susceptible to oxidation during synthesis and purification.
The mass spectrometry assay is conducted as follows: 0.5 μM peptide substrate and 120 μM βNAD^+ is incubated with 10 nM SIRT1 for 25 minutes at 25° C. in a reaction buffer (50 mM Tris-acetate pH 8, 137 mM NaCl, 2.7 mM KCl, 1 mM MgCl2, 5 mM DTT, 0.05% BSA). Test compounds may be added to the reaction as described above. […] After the 25 minute incubation with SIRT1, 10 μL of 10% formic acid is added to stop the reaction. Reactions are sealed and frozen for later mass spec analysis. Determination of the mass of the substrate peptide allows for precise determination of the degree of acetylation (i.e. starting material) as compared to deacetylated peptide (product).
A control for inhibition of sirtuin activity is conducted by adding 1 μL of 500 mM nicotinamide as a negative control at the start of the reaction (e.g., permits determination of maximum sirtuin inhibition). A control for activation of sirtuin activity is conducted using 10 nM of sirtuin protein, with 1 μL of DMSO in place of compound, to determine the amount of deacetylation of the substrate at a given timepoint within the linear range of the assay. This timepoint is the same as that used for test compounds and, within the linear range, the endpoint represents a change in velocity.
For the above assay, SIRT1 protein was expressed and purified as follows. […] The protein was expressed by induction with 1 mM IPTG as an N-terminal His-tag fusion protein at 18° C. overnight and harvested at 30,000×g. Cells were lysed with lysozyme in lysis buffer (50 mM Tris-HCl, 2 mM Tris[2-carboxyethyl]phosphine (TCEP), 10 μM ZnCl2, 200 mM NaCl) and further treated with sonication for 10 min for complete lysis. The protein was purified over a Ni-NTA column (Amersham) and fractions containing pure protein were pooled, concentrated and run over a sizing column (Sephadex S200 26/60 global). The peak containing soluble protein was collected and run on an Ion-exchange column (MonoQ). Gradient elution (200 mM-500 mM NaCl) yielded pure protein. This protein was concentrated and dialyzed against dialysis buffer (20 mM Tris-HCl, 2 mM TCEP) overnight. The protein was aliquoted and frozen at −80° C. until further use.
Sirtuin modulating compounds that activated SIRT1 were identified using the assay described above and are shown below in Table 1 for compounds of Formula (III)). The EC1.5 values represent the concentration of test compounds that result in 150% activation of SIRT1. The EC1.5 values for the activating compounds in Table 1 are represented by A (EC1.5<10.0 μM), B (EC1.5 10-25 μM), C (EC1.5>25 μM). The percent maximum fold activation is represented by A (Fold activation>200%) or B (Fold Activation<200%); “NT” means not tested; “ND” mean not determinable.

Compound	EC1.5 (concentration of test compound that results in 150% activation of SIRT1)	Emax [%]
O=C(NC1CCOc2ccc(-c3cccc(C(F)(F)F)c3)nc21)c1cccc(N2CCOCC2)n1 (centres unmarked) [Compound 222, 6-morpholino-N-(6-(3-(trifluoromethyl)phenyl)-3,4-dihydro-2H-pyrano[3,2-b]pyridin-4-yl)picolinamide]	A (EC1.5<10.0 μM)	> 200
O=C(NC1CCOc2ccc(-c3cccc(C(F)(F)F)c3)nc21)c1ccnc(CN2CCOCC2)c1 (centres unmarked) [Compound 223]	C (EC1.5>25 μM)	–
O=C(NC1CCOc2ccc(-c3cccc(C(F)(F)F)c3)nc21)c1cnccn1 (centres unmarked) [Compound 224]	C (EC1.5>25 μM)	–
O=C(NC1CCCc2ccc(-c3cccc(C(F)(F)F)c3)nc21)c1ccc(F)c(Cl)c1 (centres unmarked) [Compound 225]	C (EC1.5>25 μM)	–
O=C(NC1CCCc2ccc(-c3cccc(C(F)(F)F)c3)nc21)c1cccc2c1OC(F)(F)O2 (centres unmarked) [Compound 226]	C (EC1.5>25 μM)	–
Cc1cc(C(=O)NC2CCCc3ccc(-c4cccc(C(F)(F)F)c4)nc32)n(C)n1 (centres unmarked) [Compound 227]	A (EC1.5<10.0 μM)	> 200
O=C(NC1CCCc2ccc(-c3cccc(C(F)(F)F)c3)nc21)c1cc[nH]n1 (centres unmarked) [Compound 229]	B (EC1.5 10-25 μM)	< 200
O=C(NC1CCCc2ccc(-c3cccc(C(F)(F)F)c3)nc21)c1ccno1 (centres unmarked) [Compound 230]	C (EC1.5>25 μM)	–
O=C(NC1CCCc2ccc(-c3cccc(C(F)(F)F)c3)nc21)c1ccccn1 (centres unmarked) [Compound 231]	A (EC1.5<10.0 μM)	> 200
O=C(NC1CCCc2ccc(-c3cccc(C(F)(F)F)c3)nc21)c1cccnc1 (centres unmarked) [Compound 232]	C (EC1.5>25 μM)	< 200

The remaining lines, values ahead:

EC1.5 (concentration of test compound that results in 150% activation of SIRT1)	Emax [%]	Compound
C (EC1.5>25 μM)	–	O=C(NC1CCCc2ccc(-c3cccc(C(F)(F)F)c3)nc21)c1cncnc1 (centres unmarked) [Compound 233]
A (EC1.5<10.0 μM)	> 200	Cc1cnc(C(=O)NC2CCCc3ccc(-c4cccc(C(F)(F)F)c4)nc32)cn1 (centres unmarked) [Compound 234]
A (EC1.5<10.0 μM)	< 200	O=C(NC1CCCc2ccc(-c3cccc(C(F)(F)F)c3)nc21)c1cccc(N2CCCC2)n1 (centres unmarked) [Compound 235]
A (EC1.5<10.0 μM)	> 200	O=C(NC1CCCc2ccc(-c3cccc(C(F)(F)F)c3)nc21)c1cccc(N2CCOCC2)n1 (centres unmarked) [Compound 236]
B (EC1.5 10-25 μM)	< 200	O=C(NC1CCCc2ccc(-c3cccc(C(F)(F)F)c3)nc21)c1cccc(CN2CCCC2)c1 (centres unmarked) [Compound 237]
C (EC1.5>25 μM)	–	O=C(NC1CCCc2ccc(-c3cccc(C(F)(F)F)c3)nc21)c1ccnc(CN2CCOCC2)c1 (centres unmarked) [Compound 238]
C (EC1.5>25 μM)	–	O=C(NC1CCCc2ccc(-c3cccc(C(F)(F)F)c3)nc21)c1ccnc(CN2CCCC2)c1 (centres unmarked) [Compound 239]
C (EC1.5>25 μM)	–	O=C(NC1CCCc2ccc(-c3cccc(C(F)(F)F)c3)nc21)c1ccc(CN2CCOCC2)nc1 (centres unmarked) [Compound 241]
A (EC1.5<10.0 μM)	> 200	O=C(NC1CCCc2ccc(-c3cccc(C(F)(F)F)c3)nc21)c1cccc(C2CCNC2)c1 (centres unmarked) [Compound 242]
C (EC1.5>25 μM)	–	O=C(NC1CCCc2ccc(-c3cccc(C(F)(F)F)c3)nc21)c1cccnc1OCC(O)CO (centres unmarked) [Compound 243]
A (EC1.5<10.0 μM)	> 200	O=C(NC1CCCc2ccc(-c3cccc(C(F)(F)F)c3)nc21)c1ccnc(OCC(O)CO)c1 (centres unmarked) [Compound 244]
